Laboratory results: US5059624A, “Guanidine derivatives having hypotensive activity, composition containing them and process for obtaining them” (Consiglio Nazionale Delle Ricerche, priority 1988, dated 1991)
Read-outs that look alike come from different tables or passages of the source.

Test system: male Wistar rats
Conditions: for cardiovascular and respiratory effects (in words): i.v.
[1] = doses higher than 50-800 μg/kg i.v., rat

Procedure: In order to check its activity, diguanido-II was dissolved in a 0.9 % sodium chloride solution and administered through "rapid" i.v. route in male Wistar rats, under general anaesthesia obtained by means of 10% ethyl urethan (i ml/hg).
The active ingredients called guanido-III, -IV, -V, as well as agmatine and galegine, were also tested, after having been administered through "rapid" i.v. route in male Wistar rats (weighing average 280±5 g) under general anaesthesia obtained by means of 10% ethyl uretan (1 ml/hg, i.p.). The general experimental conditions were exactly the same as previously mentioned for guanido-I and diguanido-II, so that the cardiovascular and respiratory effects could be compared.
The parameters measured are as follows: systolic and diastolic systemic arterial pressure (AP), heart rate (HR), maximum rate of increase in the left ventricular isovolumetric pressure (dp/dt), respiratory frequency (RF) and tidal volume (TV). The doses (in μg/kg body weight, referred to the active substance) varied from 50 μg/kg to 6,400 μg/kg (ratio=2.0); in some cases higher does have been employed.

## CC(C)=CCN=C(N)N [galegine, prenylguanidine, reference compound]
50 μg/kg i.v.
  Δ AP DIAST: -19 ± 3 mmHg
  Δ AP SYST: -18 ± 1 mmHg
  Δ HR: -32 ± 6 beats/min
  Δ RF: +38 ± 4%
  Δ TV: +43 ± 4%
  Δ dp/dt: +1498 ± 131 mmHg/sec
100 μg/kg i.v.
  Δ AP DIAST: -28 ± 6 mmHg
  Δ AP SYST: -22 ± 2 mmHg
  Δ HR: -46 ± 7 beats/min
  Δ RF: +68 ± 4%
  Δ TV: +63 ± 5%
  Δ dp/dt: +1712 ± 90 mmHg/sec
200 μg/kg i.v.
  Δ AP DIAST: -29 ± 5 mmHg
  Δ AP SYST: -23 ± 5 mmHg
  Δ HR: -94 ± 6 beats/min
  Δ RF: +69 ± 7%
  Δ TV: +64 ± 7%
  Δ dp/dt: +1797 ± 178 mmHg/sec
400 μg/kg i.v.
  Δ AP DIAST: -26 ± 4 mmHg
  Δ AP SYST: -25 ± 6 mmHg
  Δ HR: -107 ± 4 beats/min
  Δ RF: +76 ± 9%
  Δ TV: +87 ± 9%
  Δ dp/dt: +2568 ± 314 mmHg/sec
800 μg/kg i.v.
  Δ AP DIAST: -26 ± 4 mmHg
  Δ AP SYST: -27 ± 4 mmHg
  Δ HR: -106 ± 11 beats/min
  Δ RF: +70 ± 8%
  Δ TV: +31 ± 3%
  Δ dp/dt: +1926 ± 223 mmHg/sec
1600 μg/kg i.v.
  Δ AP DIAST: -25 ± 4 mmHg
  Δ AP SYST: -22 ± 4 mmHg
  Δ HR: -85 ± 5 beats/min
  Δ RF: +133 ± 14%
  Δ TV: +55 ± 6%
  Δ dp/dt: +1724 ± 104 mmHg/sec
3200 μg/kg i.v.
  Δ AP DIAST: -36 ± 4 mmHg
  Δ AP SYST: -22 ± 3 mmHg
  Δ HR: -98 ± 16 beats/min
  Δ RF: +85 ± 6%
  Δ TV: +40 ± 7%
  Δ dp/dt: +2996 ± 202 mmHg/sec
6400 μg/kg i.v.
  Δ AP DIAST: -36 ± 2 mmHg
  Δ AP SYST: -18 ± 4 mmHg
  Δ HR: -42 ± 4 beats/min
  Δ RF: +37 ± 11%
  Δ TV: +29 ± 8%
  Δ dp/dt: +4494 ± 371 mmHg/sec
12800 μg/kg i.v.
  Δ AP DIAST: -42 ± 3 mmHg
  Δ AP SYST: -22 ± 2.5 mmHg
  Δ HR: -15 ± 7 beats/min
  Δ RF: +23 ± 7%
  Δ TV: +25 ± 5%
  Δ dp/dt: +6420 ± 417 mmHg/sec
25600 μg/kg i.v.
  Δ AP DIAST: -30 ± 9 mmHg
  Δ AP SYST: -19 ± 3 mmHg
  Δ HR: -21 ± 6 beats/min
  Δ RF: -34 ± 12%
  Δ TV: -57 ± 8%
  Δ dp/dt: +6471 ± 274 mmHg/sec
51200 μg/kg i.v.
  Δ AP DIAST: -50 ± 7 mmHg
  Δ AP SYST: -80 ± 8 mmHg
  Δ HR: -298 ± 19 beats/min
  Δ RF: -100%
  Δ TV: -100%
  Δ dp/dt: -4708 ± 312 mmHg/sec
25,600 and 51,200 ug/kg i.v., rat
  death of the tested animals at extremely high doses: primary respiratory depression (reduction of RF and TV) and a subsequent arterial hypotension. bradycardia and decrease in the cardiac inotropism (dp/dt), with death of the tested animals

## N=C(N)N [guanidine]
50-800 μg/kg i.v., rat
  alterations of RF, TV and HR (in words): did not cause in the rats under test significative alterations of RF, TV and HR
  dp/dt (in words): a little reduction of dp/dt
  hypotensive responses (in words): slight and not significant hypotensive responses
6,400-1,2600 μg/kg i.v., rat
  the other parameters (in words): slight changes
[1]
  RF and TV (in words): reduction of RF and TV
  cardiac inotropism (dp/dt) (in words): a little increase in cardiac inotropism (dp/dt)
  systemic arterial pressure (in words): biphasic responses of a slight entity (hypo-hypertension)

## NCCCCN=C(N)N [agmatine, 4-(aminobutyl)guanidine, reference compound]
200 μg/kg i.v.
  Δ AP DIAST: -4 ± 1 mmHg
  Δ AP SYST: -5 ± 2 mmHg
  Δ HR: 0 beats/min
  Δ RF: +9 ± 3%
  Δ TV: +3 ± 1%
  Δ dp/dt: +300 ± 89 mmHg/sec
400 μg/kg i.v.
  Δ AP DIAST: -6 ± 2 mmHg
  Δ AP SYST: -6 ± 1 mmHg
  Δ HR: 0 beats/min
  Δ RF: +11 ± 4%
  Δ TV: +12 ± 4%
  Δ dp/dt: +334 ± 54 mmHg/sec
800 μg/kg i.v.
  Δ AP DIAST: -8 ± 2 mmHg
  Δ AP SYST: -8 ± 2 mmHg
  Δ HR: 0 beats/min
  Δ RF: +12 ± 4%
  Δ TV: +14 ± 2%
  Δ dp/dt: +947 ± 131 mmHg/sec
1600 μg/kg i.v.
  Δ AP DIAST: -10 ± 1 mmHg
  Δ AP SYST: -9 ± 3 mmHg
  Δ HR: 0 beats/min
  Δ RF: +11 ± 2%
  Δ TV: +25 ± 5%
  Δ dp/dt: +981 ± 94 mmHg/sec
3200 μg/kg i.v.
  Δ AP DIAST: -11 ± 2 mmHg
  Δ AP SYST: -9 ± 2 mmHg
  Δ HR: -7 ± 2 beats/min
  Δ RF: +13 ± 4%
  Δ TV: +27 ± 4%
  Δ dp/dt: +1356 ± 164 mmHg/sec
6400 μg/kg i.v.
  Δ AP DIAST: -13 ± 4 mmHg
  Δ AP SYST: -11 ± 4 mmHg
  Δ HR: -13 ± 5 beats/min
  Δ RF: +13 ± 5%
  Δ TV: +30 ± 7%
  Δ dp/dt: +3351 ± 417 mmHg/sec
12800 μg/kg i.v.
  Δ AP DIAST: -18 ± 5 mmHg
  Δ AP SYST: -12 ± 2 mmHg
  Δ HR: -17 ± 2 beats/min
  Δ RF: +15 ± 2%
  Δ TV: +31 ± 7%
  Δ dp/dt: +2568 ± 432 mmHg/sec
25600 μg/kg i.v.
  Δ AP DIAST: -23 ± 4 mmHg
  Δ AP SYST: -12 ± 3 mmHg
  Δ HR: -17 ± 7 beats/min
  Δ RF: +24 ± 4%
  Δ TV: +33 ± 9%
  Δ dp/dt: +3565 ± 813 mmHg/sec
51200 μg/kg i.v.
  Δ AP DIAST: -34 ± 6 mmHg
  Δ AP SYST: -15 ± 1 mmHg
  Δ HR: -22 ± 1 beats/min
  Δ RF: +31 ± 7%
  Δ TV: +35 ± 6%
  Δ dp/dt: +5491 ± 869 mmHg/sec
rat
  cardiovascular and respiratory effects (in words): analogous to those induced by guanido-V., moreover, said active ingredient caused a constant increase in dp/dt, RF and TV

## CC(C)=CCNC(=N)NCCCCN [guanido-III, prenylagmatine]
200 μg/kg i.v.
  Δ AP DIAST: -2 ± 0.2 mmHg
  Δ AP SYST: -2 ± 0.3 mmHg
  Δ HR: 0 beats/min
  Δ RF: +7 ± 4%
  Δ TV: +9 ± 2%
  Δ dp/dt: +214 ± 20 mmHg/sec
400 μg/kg i.v.
  Δ AP DIAST: -2 ± 0.6 mmHg
  Δ AP SYST: -3.5 ± 1.5 mmHg
  Δ HR: 0 beats/min
  Δ RF: +7 ± 3%
  Δ TV: +17 ± 6%
  Δ dp/dt: +321 ± 17 mmHg/sec
800 μg/kg i.v.
  Δ AP DIAST: -13 ± 4 mmHg
  Δ AP SYST: -11 ± 1 mmHg
  Δ HR: -15 ± 3 beats/min
  Δ RF: +10 ± 4%
  Δ TV: +33 ± 9%
  Δ dp/dt: +1356 ± 428 mmHg/sec
1600 μg/kg i.v.
  Δ AP DIAST: -21 ± 4 mmHg
  Δ AP SYST: -13 ± 2 mmHg
  Δ HR: -23 ± 10 beats/min
  Δ RF: +18 ± 3%
  Δ TV: +21 ± 7%
  Δ dp/dt: +2157 ± 655 mmHg/sec
3200 μg/kg i.v.
  Δ AP DIAST: -36 ± 6 mmHg
  Δ AP SYST: -36 ± 7 mmHg
  Δ HR: -26 ± 8 beats/min
  Δ RF: -42 ± 9%
  Δ TV: -73 ± 18%
6400 μg/kg i.v.
  Δ AP DIAST: -85 ± 3 mmHg
  Δ AP SYST: -112 ± 3 mmHg
  Δ HR: -310 ± 25 beats/min
  Δ RF: -100%
  Δ TV: -100%
  Δ dp/dt: -5422 ± 514 mmHg/sec
rat
  cardiovascular and respiratory effects (in words): systolic and diastolic arterial hypotension (well evident starting from the dose of 800 μg/kg), bradycardia, increase of dp/dt (up to the dose of 3,200 μg/kg). increase of RF and TV (up to the dose of 1,600 μg/kg)
rat, in vivo, iv
  death of the tested animals: caused death of the tested animals

## COc1ccc(C=CC(=O)NCCCCNC(=N)N)cc1OC [guanido-V, 4-[(3,4-dimethoxycinnamoyl)amino]butylguanldine]
200 μg/kg i.v.
  Δ AP DIAST: 0 mmHg
  Δ AP SYST: 0 mmHg
  Δ HR: 0 beats/min
  Δ RF: -7 ± 2%
  Δ TV: -14 ± 4%
  Δ dp/dt: -392 ± 21 mmHg/sec
400 μg/kg i.v.
  Δ AP DIAST: -3 ± 1 mmHg
  Δ AP SYST: -4 ± 2 mmHg
  Δ HR: 0 beats/min
  Δ RF: -3%
  Δ TV: -13 ± 2%
  Δ dp/dt: -384 ± 39 mmHg/sec
800 μg/kg i.v.
  Δ AP DIAST: -6 ± 2 mmHg
  Δ AP SYST: -5 ± 2 mmHg
  Δ HR: 0 beats/min
  Δ RF: -3 ± 2%
  Δ TV: +12 ± 4%
  Δ dp/dt: -430 ± 43 mmHg/sec
1600 μg/kg i.v.
  Δ AP DIAST: -6 ± 2 mmHg
  Δ AP SYST: -8 ± 3 mmHg
  Δ HR: 0 beats/min
  Δ RF: -4 ± 1%
  Δ TV: +11 ± 3%
  Δ dp/dt: -642 ± 76 mmHg/sec
3200 μg/kg i.v.
  Δ AP DIAST: -9 ± 3 mmHg
  Δ AP SYST: -10 ± 4 mmHg
  Δ HR: 0 beats/min
  Δ RF: +1 ± 1%
  Δ TV: +20 ± 6%
  Δ dp/dt: +684 ± 38 mmHg/sec
6400 μg/kg i.v.
  Δ AP DIAST: -15 ± 4 mmHg
  Δ AP SYST: -11 ± 3 mmHg
  Δ HR: -14 ± 6 beats/min
  Δ RF: +10 ± 4%
  Δ TV: +22 ± 7%
  Δ dp/dt: +2354 ± 214 mmHg/sec
12800 μg/kg i.v.
  Δ AP DIAST: -28 ± 4 mmHg
  Δ AP SYST: -23 ± 5 mmHg
  Δ HR: -49 ± 8 beats/min
  Δ RF: +11 ± 3%
  Δ TV: +74 ± 8%
  Δ dp/dt: +2996 ± 170 mmHg/sec
102400 μg/kg i.v.
  Δ AP DIAST: -30 ± 5 mmHg
  Δ AP SYST: -24 ± 4 mmHg
  Δ HR: -67 ± 11 beats/min
  Δ RF: +6 ± 4%
  Δ TV: +79 ± 12%
  Δ dp/dt: +3040 ± 224 mmHg/sec
rat
  cardiovascular and respiratory effects (in words): systolic and diastolic arterial hypotension, more evident from the dose of 3,200 μg/kg on; bradycardia was observed starting from the dose of 6,400 μg/kg, a slight reduction of dp/dt and RF appeared up to the highest doses; TV showed a similar trend
